“Also recorded” adds a separate entry of the source. Where two headings read alike, the source gives them in different places. One block for each compound: values may come before it.
How the values were obtained:
[1] = test system: adult rat ventricular myocytes (ARVMs); test: Myofibril resting tension after 24 hour treatment of cultured ARVMs; assay type: cell-based; details: myofibrils isolated from ARVMs treated for 24 hours
[2] = test system: diastolic dysfunction in murine models; details: murine models of hypertension and aging, reference (21); cited from earlier work
HDAC6 = target: T1, HDAC6 (Rattus norvegicus, UniProt A0A8I6GM68); test: Tubulin acetylation in treated ARVMs as a marker of HDAC6 inhibition (immunofluorescence, immunoblot); assay type: cell-based; details: ARVMs treated for 24 hours
T1 construct: endogenous in cells; host or cells: adult rat ventricular myocytes (ARVMs) from Sprague Dawley rats
Excerpt: FIG. 1K are images of immunoblot analysis of acetyl-tubulin and total tubulin in whole-cell homogenates from treated ARVMs.

rat myofibrils (titin) = test: Ex vivo incubation of purified rat myofibrils with recombinant enzyme, then myofibril mechanics; details: 30 minutes
Description: (§1) Myofibril mechanics were quantified using the fast solution switching technique (47). Frozen LV sections were skinned in 0.5% Triton-X in rigor solution (132 mM NaCl, 5 mM KCl, 1 mM MgCl2, 10 mM Tris, 5 mM EGTA, pH 7.1) containing protease inhibitors (10 μm leupeptin, 5 μm pepstatin, 200 μm PMSF and 10 μm E64), as well as 500 μm NaN3 and 500 μm DTT at 4° C. overnight. Skinned LVs were washed in fresh rigor solution and homogenized (Tissue-Tearor, Thomas Scientific) in relaxing solution (pCa 9.0) containing protease inhibitors. […] Average sarcomere lengths and myofibril diameters were measured using ImageJ software. […] Data were collected and analyzed using customized Lab View software. Measured mechanical and kinetic parameters were defined as follows: resting tension (mN/mm^2)=myofibril basal tension in fully relaxing condition; maximal tension (mN/mm^2)=maximal tension generated at full calcium activation (pCa 4.5); the rate constant of tension development following maximal calcium activation=kACT; and relaxation parameters were defined as: duration of the linear relaxation=linear duration, and the rate constant of exponential relaxation=fast kREL. For, myofibril resting tension-to-sarcomere length curves, each myofibril was stretched incrementally to determine the resting tension at different sarcomere lengths, and a resting tension-sarcomere length relationship was measured. […]

[3] = test system: myofibrils from non-failing human LVs; test: Ex vivo treatment of human myofibrils with recombinant PKCα, with or without subsequent recombinant HDAC6, then myofibril mechanics
Description: Myofibril mechanics were quantified using the fast solution switching technique (47). Frozen LV sections were skinned in 0.5% Triton-X in rigor solution (132 mM NaCl, 5 mM KCl, 1 mM MgCl2, 10 mM Tris, 5 mM EGTA, pH 7.1) containing protease inhibitors (10 μm leupeptin, 5 μm pepstatin, 200 μm PMSF and 10 μm E64), as well as 500 μm NaN3 and 500 μm DTT at 4° C. overnight. Skinned LVs were washed in fresh rigor solution and homogenized (Tissue-Tearor, Thomas Scientific) in relaxing solution (pCa 9.0) containing protease inhibitors. Myofibril suspensions were transferred to a temperature controlled chamber (15° C.) containing relaxing solution (pCa 9.0; 100 mM Na2EGTA; 1 M potassium propionate; 100 mM Na2SO4; 1 M MOPS; 1 M MgCl2; 6.7 mM ATP; and 1 mM creatine phosphate; pH 7.0). Myofibril bundles were mounted between two micro-tools. One tool was connected to a motor that could produce rapid length changes (Mad City Labs). The second tool was a calibrated cantilevered force probe (7-10 μm/μN; frequency response 2-5 KHz). Myofibrils were set 5-10% above slack myofibril length. Average sarcomere lengths and myofibril diameters were measured using ImageJ software. Mounted myofibrils were activated and relaxed by rapidly translating the interface between two flowing streams of solutions of different pCa. Data were collected and analyzed using customized Lab View software. Measured mechanical and kinetic parameters were defined as follows: resting tension (mN/mm^2)=myofibril basal tension in fully relaxing condition; maximal tension (mN/mm^2)=maximal tension generated at full calcium activation (pCa 4.5); the rate constant of tension development following maximal calcium activation=kACT; and relaxation parameters were defined as: duration of the linear relaxation=linear duration, and the rate constant of exponential relaxation=fast kREL. For, myofibril resting tension-to-sarcomere length curves, each myofibril was stretched incrementally to determine the resting tension at different sarcomere lengths, and a resting tension-sarcomere length relationship was measured. […]

[4] = test system: myofibrils from mice lacking the PEVK region of titin; test: Ex vivo treatment of PEVK KO mouse LV myofibrils with recombinant HDAC6, then myofibril mechanics; details: 30 minutes
Description: as §1

[5] = test system: PKC-driven phosphorylation of sacromeric proteins; test: Immunoblot with anti-PKC substrate antibody of treated human myofibril proteins; assay type: biochemical; details: human myofibrils, PKCα followed by HDAC6
Description: FIG. 3E is an immunoblot performed with an anti-PKC substrate antibody and solubilized proteins from myofibrils treated as indicated in the protocol illustrated in FIG. 3B.
Elevated PEVK phosphorylation is s associated with increased cardiomyocyte passive stiffness in pre-clinical models and in human heart failure (7). To begin to address the therapeutic potential of HDAC6 gain-of-function, an ex vivo experiment was performed to determine whether HDAC6 is capable of overriding the cardiac stiffening effect of PKC. Myofibrils obtained from non-failing human LVs were pretreated with recombinant PKCα, washed, and then incubated with recombinant HDAC6 (FIG. 3B).

[6] = test system: WT mouse left ventricle myofibrils (titin); test: Ex vivo treatment of WT mouse LV myofibrils with recombinant HDAC6, then myofibril mechanics; details: 30 minutes, listed as rHDAC6
Description: as §1

[7] = test system: human myofibrils from non-failing donor left ventricle (titin); test: Ex vivo treatment of human LV myofibrils with recombinant HDAC6, then myofibril mechanics
Description: as §1

T1 sequence (A0A8I6GM68 whole entry): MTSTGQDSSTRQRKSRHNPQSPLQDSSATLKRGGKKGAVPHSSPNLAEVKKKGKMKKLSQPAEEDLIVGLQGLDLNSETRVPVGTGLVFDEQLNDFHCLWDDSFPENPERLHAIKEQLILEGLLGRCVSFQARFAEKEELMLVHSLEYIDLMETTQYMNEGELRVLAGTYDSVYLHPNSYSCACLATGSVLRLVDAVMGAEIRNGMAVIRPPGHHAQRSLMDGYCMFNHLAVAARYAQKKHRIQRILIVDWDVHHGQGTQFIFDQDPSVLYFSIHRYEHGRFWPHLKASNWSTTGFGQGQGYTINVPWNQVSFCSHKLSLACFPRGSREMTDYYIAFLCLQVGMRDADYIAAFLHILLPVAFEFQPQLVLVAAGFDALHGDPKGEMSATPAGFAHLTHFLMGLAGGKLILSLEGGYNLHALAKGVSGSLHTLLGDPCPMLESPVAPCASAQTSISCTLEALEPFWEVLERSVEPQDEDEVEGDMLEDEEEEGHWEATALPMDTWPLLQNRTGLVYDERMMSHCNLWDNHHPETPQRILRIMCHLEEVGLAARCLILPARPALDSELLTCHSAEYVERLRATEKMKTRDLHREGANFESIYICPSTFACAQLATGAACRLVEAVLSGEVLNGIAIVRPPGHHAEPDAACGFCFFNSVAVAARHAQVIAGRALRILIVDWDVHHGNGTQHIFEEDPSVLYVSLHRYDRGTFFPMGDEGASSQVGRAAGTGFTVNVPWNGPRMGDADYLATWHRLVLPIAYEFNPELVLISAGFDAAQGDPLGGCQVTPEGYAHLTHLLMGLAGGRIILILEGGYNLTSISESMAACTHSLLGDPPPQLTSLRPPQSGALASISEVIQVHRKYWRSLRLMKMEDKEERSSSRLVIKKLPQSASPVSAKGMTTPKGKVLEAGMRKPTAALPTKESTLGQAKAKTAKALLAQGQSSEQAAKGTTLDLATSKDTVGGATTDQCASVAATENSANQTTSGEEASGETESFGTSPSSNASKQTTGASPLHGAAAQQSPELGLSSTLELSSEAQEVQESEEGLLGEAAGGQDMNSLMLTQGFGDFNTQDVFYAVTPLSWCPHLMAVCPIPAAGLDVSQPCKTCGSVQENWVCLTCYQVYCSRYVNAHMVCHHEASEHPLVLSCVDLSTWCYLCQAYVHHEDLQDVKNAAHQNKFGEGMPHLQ

Compound: CCN(CC)Cc1ccc2cc(COC(=O)Nc3ccc(C(=O)NO)cc3)ccc2c1 [givinostat, [6-(diethylaminomethyl)naphthalen-2-yl] methyl N-[4-(hydroxycarbamoyl)phenyl] carbamate]
- myofibril resting tension / myofibril stiffness [1]: no effect
- diastolic dysfunction [2]: ameliorates rather than exacerbates diastolic dysfunction

- tubulin acetylation as a marker of HDAC6 inhibition (HDAC6): inhibited HDAC6 equivalently
Compound: CN1CCc2c(c3ccccc3n2Cc2ccc(C(=O)NO)cc2)C1 [tubastatin A]
- myofibril resting tension / myofibril stiffness [1]: elevated resting tension; also recorded: dramatically increased resting tension

Compound: HDAC2: recombinant HDAC2 used as control in the ex vivo myofibril assay
- titin stiffness / myofibril compliance (rat myofibrils (titin)): not

Compound: PKCα: recombinant PKCα (0.066 U/μL, Millipore 14-484) with lipid activator
- myofibril resting tension at physiologic sarcomere length ([3]; human myofibrils treated with recombinant PKCα alone): dramatically increased

Compound: recombinant HDAC6: recombinant HDAC6 (1 μg/μL, BPS Bioscience) used for ex vivo treatment of myofibrils
- PKC-induced leftward shift in the sarcomere length-to-resting tension curve ([3]; human myofibrils pretreated with recombinant PKCα, then recombinant HDAC6): largely blocked
- PKCα-induced stiffening (resting tension at physiologic sarcomere length) ([3]; human myofibrils pretreated with recombinant PKCα, washed, then incubated with recombinant HDAC6): completely normalized
- response of myofibril stiffness to HDAC6 [4]: completely resistant
- PKC-driven phosphorylation of sacromeric proteins [5]: without affecting
- titin stiffness / myofibril compliance (rat myofibrils (titin)): reduced titin stiffness; also recorded: increases myofibril compliance
- myofibril compliance [6]: increased compliance
- myofibril compliance / cardiomyocyte passive stiffness [7]: increases myofibril compliance
- myofibril compliance / cardiomyocyte passive stiffness ([7]; listed as rHDAC6): conserved ability of this deacetylase to control cardiomyocyte passive stiffness
